This note sets out measurements from patent publication US7091038B2, “Ecdysone receptor-based inducible gene expression system” (RheoGene, Inc., priority 2000, dated 2006).

The subject of experiment [1] is GAL4EcR + VP16USP. Kind of experiment: Transactivation of reporter gene through switch 1.2 in 3T3 cells. The format is cell-based, Choristoneura fumiferana. Particulars: switch 1.2, pGAL4RELuc. The method, then:
(§1) This construct was prepared in the same way as in switch 1.1 above except MmRXRDEF was replaced with the D, E and F domains from spruce budworm USP (“CfUSPDEF”; SEQ ID NO: 67). The constructs used in this example are similar to those disclosed in U.S. Pat. No. 5,880,333 except that Choristoneura fumiferana USP rather than Drosophila melanogaster USP was utilized.
(§2) The cells were harvested and reporter activity was assayed.
(§3) The cells were plated when they reached 50% confluency.
(§4) Cells were harvested 24–48 hr after adding ligands. […] Twenty μl of lysate was assayed.

The test system of experiment [2] is GAL4USP + VP16CfEcR. As to the kind of experiment: Transactivation of reporter gene through switch 1.5 in 293 cells. The format is cell-based, Choristoneura fumiferana. Particulars: switch 1.5, pGAL4RELuc. The method, then:
(§5) This construct was prepared in the same way as switch 1.3 except MmRXRDEF was replaced with CfUSPDEF (SEQ ID NO: 67).
as §2
The same procedures described for CHO were followed for 293 cells except that the cells were plated in biocoated plates to avoid clumping.
as §4
In general terms: In a reporter assay the amount or activity of a reporter protein is the signal.

Experiment [3] deals with DmVgRXR + MmRXR (Drosophila melanogaster, UniProt P34021, E282G/G283S/G286V). Kind of experiment: Transactivation of reporter gene through switch 1.8 in CHO cells. The format is cell-based, Drosophila melanogaster; Mus musculus. Also noted: host or cells: CHO, NIH3T3, 293 or CV1 cells. Particulars: switch 1.8, pIND(SP1)LacZ.
Excerpt: This system was purchased from Invitrogen Corp., Carlsbad, California. It comprises a Drosophila melanogaster EcR (“DmEcR”) with a modified DNABD fused to VP16AD and placed under the control of a CMV promoter (SEQ ID NO: 68). Full length MmRXR (SEQ ID NO: 62) was placed under the control of the RSV promoter (SEQ ID NO: 69). The reporter, pIND(SP1)LacZ, contains five copies of a modified ecdysone response element (“EcRE”, E/GRE), three copies of an SPI enhancer, and a minimal heat shock promoter, all of which were placed upstream to the LacZ reporter gene.
as §2, §4

The subject of experiment [4] is GAL4EcR + VP16USP. Kind of experiment: Transactivation of reporter gene through switch 1.2 in CHO cells. Particulars: switch 1.2, pGAL4RELuc. The format is cell-based, Choristoneura fumiferana. The method, then: as §1, §2, §4
Experiment [5] deals with GAL4USP + VP16CfEcR. Kind of experiment: Transactivation of reporter gene through switch 1.5 in 3T3 cells. The format is cell-based, Choristoneura fumiferana. Particulars: switch 1.5, pGAL4RELuc. The method, then: as §5, §2, §3, §4
In experiment [6] the target is T1, GAL4RXR + VP16DmEcR (Drosophila melanogaster, UniProt P34021).
T1 sequence (P34021 254-878): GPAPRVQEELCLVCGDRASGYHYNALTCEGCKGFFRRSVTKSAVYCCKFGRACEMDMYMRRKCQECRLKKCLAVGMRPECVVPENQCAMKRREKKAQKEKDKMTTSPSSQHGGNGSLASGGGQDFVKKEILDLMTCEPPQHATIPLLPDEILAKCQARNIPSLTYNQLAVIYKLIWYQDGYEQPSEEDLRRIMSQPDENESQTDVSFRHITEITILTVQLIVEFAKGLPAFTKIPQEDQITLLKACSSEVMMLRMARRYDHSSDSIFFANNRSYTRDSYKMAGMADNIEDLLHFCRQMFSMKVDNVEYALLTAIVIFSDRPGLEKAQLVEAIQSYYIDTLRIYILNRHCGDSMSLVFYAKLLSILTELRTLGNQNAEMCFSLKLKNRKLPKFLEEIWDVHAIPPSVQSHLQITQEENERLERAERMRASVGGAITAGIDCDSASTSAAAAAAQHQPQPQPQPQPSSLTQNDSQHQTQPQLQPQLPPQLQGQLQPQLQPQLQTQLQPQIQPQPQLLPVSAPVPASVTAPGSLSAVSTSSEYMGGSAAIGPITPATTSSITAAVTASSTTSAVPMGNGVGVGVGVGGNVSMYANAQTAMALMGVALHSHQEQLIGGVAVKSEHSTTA
T1 sequence (P28700 206-467 partner limits assumed): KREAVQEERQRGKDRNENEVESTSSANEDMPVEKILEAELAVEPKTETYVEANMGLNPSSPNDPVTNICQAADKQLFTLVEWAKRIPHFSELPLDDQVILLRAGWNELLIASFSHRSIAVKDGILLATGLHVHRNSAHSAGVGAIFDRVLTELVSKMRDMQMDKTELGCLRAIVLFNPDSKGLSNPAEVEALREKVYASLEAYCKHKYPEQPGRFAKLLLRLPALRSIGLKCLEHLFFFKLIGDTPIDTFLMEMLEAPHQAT
As to the kind of experiment: Transactivation of reporter gene through switch 1.4 in CV1 cells. The format is cell-based, Mus musculus; Drosophila melanogaster. Also noted: expressed in transfected cells; host or cells: CV1 cells. Particulars: switch 1.4, pGAL4RELuc. The method, then: This construct was prepared in the same way as switch 1.3 except CfEcRCDEF was replaced with DmEcRCDEF (SEQ ID NO: 6).
as §2, §3
(§6) The same procedures described for NIH3T3 cells were followed for CV1 cells
as §4

The test system of experiment [7] is VP16CfEcR. Kind of experiment: Transactivation of reporter gene through switch 1.7 in CV1 cells. The format is cell-based, Choristoneura fumiferana. Particulars: switch 1.7, pEcRELuc. As to the method:
Six ecdysone response elements (“EcRE”; SEQ ID NO: 55) from the hsp27 gene were placed upstream of the promoter and a luciferase gene (SEQ ID NO: 66). This switch most probably uses endogenous RXR.
as §2, §3, §6, §4

DmVgRXR + MmRXR, sequence (P28700 whole entry, the tested form may be a part): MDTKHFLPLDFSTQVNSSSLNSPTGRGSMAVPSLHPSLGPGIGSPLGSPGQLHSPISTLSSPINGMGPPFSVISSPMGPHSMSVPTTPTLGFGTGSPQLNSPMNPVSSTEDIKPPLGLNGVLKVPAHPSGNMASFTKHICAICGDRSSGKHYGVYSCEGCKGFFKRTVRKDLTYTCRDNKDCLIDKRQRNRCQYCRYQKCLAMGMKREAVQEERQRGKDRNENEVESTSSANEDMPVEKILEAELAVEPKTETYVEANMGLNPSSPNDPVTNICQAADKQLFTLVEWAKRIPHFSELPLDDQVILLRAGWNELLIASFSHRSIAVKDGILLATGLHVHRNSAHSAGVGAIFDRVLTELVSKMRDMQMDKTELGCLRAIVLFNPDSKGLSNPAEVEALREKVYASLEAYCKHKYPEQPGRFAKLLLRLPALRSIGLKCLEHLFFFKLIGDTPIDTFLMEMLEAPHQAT
DmVgRXR + MmRXR, sequence (P34021 whole entry E282G/G283S/G286V, the tested form may be a part): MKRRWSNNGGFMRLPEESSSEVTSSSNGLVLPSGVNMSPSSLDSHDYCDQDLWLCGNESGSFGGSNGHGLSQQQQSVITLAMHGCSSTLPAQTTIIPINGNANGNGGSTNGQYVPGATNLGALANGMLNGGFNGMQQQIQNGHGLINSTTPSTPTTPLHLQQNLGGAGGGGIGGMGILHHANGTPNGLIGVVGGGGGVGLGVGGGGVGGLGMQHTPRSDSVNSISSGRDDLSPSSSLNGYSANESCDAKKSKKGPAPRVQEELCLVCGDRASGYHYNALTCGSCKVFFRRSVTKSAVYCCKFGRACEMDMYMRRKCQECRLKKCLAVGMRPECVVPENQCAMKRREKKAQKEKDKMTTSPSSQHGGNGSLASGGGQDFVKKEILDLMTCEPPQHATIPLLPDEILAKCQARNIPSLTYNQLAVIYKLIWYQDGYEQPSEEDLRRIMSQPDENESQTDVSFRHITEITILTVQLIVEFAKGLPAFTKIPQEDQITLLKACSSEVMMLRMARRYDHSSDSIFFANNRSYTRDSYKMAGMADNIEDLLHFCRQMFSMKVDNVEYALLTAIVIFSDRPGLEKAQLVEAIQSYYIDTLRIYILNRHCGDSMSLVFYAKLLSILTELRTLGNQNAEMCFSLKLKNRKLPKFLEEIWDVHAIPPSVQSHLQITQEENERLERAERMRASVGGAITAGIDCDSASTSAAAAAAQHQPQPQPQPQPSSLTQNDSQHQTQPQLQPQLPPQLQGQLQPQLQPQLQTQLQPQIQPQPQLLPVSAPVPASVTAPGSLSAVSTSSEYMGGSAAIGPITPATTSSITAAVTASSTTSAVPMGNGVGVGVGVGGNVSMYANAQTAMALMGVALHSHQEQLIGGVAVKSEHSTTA

Take `CCc1c(OC)cccc1C(=O)NN(C(=O)c1cc(C)cc(C)c1)C(C)(C)C` [N-(2-ethyl-3-methoxybenzoyl)-N′-(3,5-dimethylbenzoyl)-N′-t-butylhydrazine]: the “Mean Fold Activation Through N-(2-ethyl-3-methoxybenzoyl)-N′-(3,5-dimethylbenzoyl)-N′-t-butylhydrazine” value in experiment [1] worked out at 2 fold; in experiment [2], 2 fold; in experiment [5], 3 fold; in experiment [6], 80 fold; in experiment [7] it was 1 fold. The entries for the “Mean Fold Activation with 50 μM N-(2-ethyl-3-methoxybenzoyl)-N′-(3,5-dimethylbenzoyl)-N′-t-butylhydrazine” value in experiment [3] and in experiment [4] were 14 fold and 2 fold, respectively.
